In US9200017B2, “Multimodal imaging of fibrin” (The General Hospital Corporation, priority 2009, dated 2015):

Biological target: T1, fibrin (clotted fibrinogen from human plasma) (Homo sapiens, UniProt P02671+P02675+P02679)
T1 construct: thrombin cleaves fibrinopeptides on fibrinogen resulting in an end-to-end polymerization to give the polymer fibrin; Fibrinogen from human plasma (Calbiochem); purchased Calbiochem; host or cells: human plasma
T1 sequence (P02671 36-629 isoform P02671-2 limits assumed): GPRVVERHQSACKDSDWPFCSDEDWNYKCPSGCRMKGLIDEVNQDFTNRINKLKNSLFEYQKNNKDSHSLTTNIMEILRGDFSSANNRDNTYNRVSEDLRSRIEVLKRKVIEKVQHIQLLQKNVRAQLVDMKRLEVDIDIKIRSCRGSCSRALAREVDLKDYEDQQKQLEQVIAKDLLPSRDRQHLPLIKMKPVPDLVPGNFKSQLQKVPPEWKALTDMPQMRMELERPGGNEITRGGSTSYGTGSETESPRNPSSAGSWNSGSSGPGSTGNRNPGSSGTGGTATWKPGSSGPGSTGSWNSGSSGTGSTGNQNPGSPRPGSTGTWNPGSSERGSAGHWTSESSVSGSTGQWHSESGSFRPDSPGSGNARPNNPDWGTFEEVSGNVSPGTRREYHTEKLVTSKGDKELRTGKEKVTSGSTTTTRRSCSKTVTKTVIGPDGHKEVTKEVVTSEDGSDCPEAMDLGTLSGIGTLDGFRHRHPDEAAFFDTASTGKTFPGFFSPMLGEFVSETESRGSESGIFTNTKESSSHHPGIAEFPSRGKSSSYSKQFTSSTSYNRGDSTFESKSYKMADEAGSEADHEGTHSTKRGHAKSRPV
T1 sequence (P02675 45-491 limits assumed): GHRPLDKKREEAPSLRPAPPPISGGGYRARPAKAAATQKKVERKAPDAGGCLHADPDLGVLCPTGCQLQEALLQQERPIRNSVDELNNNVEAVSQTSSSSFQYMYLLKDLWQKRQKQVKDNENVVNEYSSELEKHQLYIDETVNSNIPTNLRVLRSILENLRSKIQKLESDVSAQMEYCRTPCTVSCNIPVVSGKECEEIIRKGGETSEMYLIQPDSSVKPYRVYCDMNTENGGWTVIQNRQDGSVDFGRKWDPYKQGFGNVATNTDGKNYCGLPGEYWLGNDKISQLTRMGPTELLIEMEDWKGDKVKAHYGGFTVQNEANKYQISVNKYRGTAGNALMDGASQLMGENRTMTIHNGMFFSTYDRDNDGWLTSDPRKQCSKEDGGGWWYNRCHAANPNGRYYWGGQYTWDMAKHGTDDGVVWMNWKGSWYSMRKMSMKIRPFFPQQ
T1 sequence (P02679 27-437 isoform P02679-2 limits assumed): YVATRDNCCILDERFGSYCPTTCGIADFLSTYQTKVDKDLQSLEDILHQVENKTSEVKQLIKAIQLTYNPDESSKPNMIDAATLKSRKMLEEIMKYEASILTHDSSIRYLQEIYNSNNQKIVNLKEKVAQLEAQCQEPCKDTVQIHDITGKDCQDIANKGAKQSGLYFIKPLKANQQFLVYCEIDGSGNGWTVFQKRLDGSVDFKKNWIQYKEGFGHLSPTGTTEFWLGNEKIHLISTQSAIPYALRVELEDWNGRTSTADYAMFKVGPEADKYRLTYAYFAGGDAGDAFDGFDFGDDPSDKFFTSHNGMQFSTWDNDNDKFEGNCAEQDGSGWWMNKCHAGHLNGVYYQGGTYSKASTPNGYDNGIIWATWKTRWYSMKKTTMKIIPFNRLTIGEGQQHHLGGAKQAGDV
Assay: Fibrin binding of Cu-64 labeled probes, dried fibrin plate, percentage bound
Conditions: dried fibrin wells, 37° C., unbound probe by well counting
Description: Fibrinogen from human plasma (Calbiochem) was dialyzed against 50 mM Tris, pH 7.4, 150 mM sodium chloride, 5 mM sodium citrate (TBS·citrate). The fibrinogen concentration was adjusted to 5 mg/mL and CaCl2 was added (7 mM). The fibrinogen solution (50 μL) was dispensed into the wells of a 96-well polystyrene microplate (Immulon-II). A solution (50 μL) of human thrombin (2 U/mL) in TBS was added to each well to clot the fibrinogen. The plates were incubated at 37° C. and evaporated to dryness overnight. The plates were sealed with tape and stored at −20° C. until use. The wells with dried fibrin were incubated at 37° C. with known concentrations of the probes. The concentration of the unbound probe was determined by well counting. The concentration of the bound probe=[total]−[unbound]. The percentage bound probe was given by [(bound probe)/total probe)]×100.

## Gd3-EP-2104R-Cu [Compound 21]
  % bound (percentage bound probe): 98.7%
